These compounds were tested against human DGKζ (Homo sapiens (Human), UniProt Q13574) (assay: Human DGKζ kinase activity inhibition assay (ADP-Glo)). Conditions: in vitro human DGKζ kinase activity inhibition assay; read-out: IC50.
Type: biochemical
Outline: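 Enzyme was C-terminally FLAG-tagged full-length recombinant human DGKζ from baculovirus-infected insect cells. Substrate preparation used octyl-β-D-glucopyranoside in 50 mM MOPS pH 7.4 with sonication; ADP generated was quantified by ADP-Glo luminescence as activity measure.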

Sequence of human DGKζ (Q13574 other isoform, or with tags, fused parts or gaps): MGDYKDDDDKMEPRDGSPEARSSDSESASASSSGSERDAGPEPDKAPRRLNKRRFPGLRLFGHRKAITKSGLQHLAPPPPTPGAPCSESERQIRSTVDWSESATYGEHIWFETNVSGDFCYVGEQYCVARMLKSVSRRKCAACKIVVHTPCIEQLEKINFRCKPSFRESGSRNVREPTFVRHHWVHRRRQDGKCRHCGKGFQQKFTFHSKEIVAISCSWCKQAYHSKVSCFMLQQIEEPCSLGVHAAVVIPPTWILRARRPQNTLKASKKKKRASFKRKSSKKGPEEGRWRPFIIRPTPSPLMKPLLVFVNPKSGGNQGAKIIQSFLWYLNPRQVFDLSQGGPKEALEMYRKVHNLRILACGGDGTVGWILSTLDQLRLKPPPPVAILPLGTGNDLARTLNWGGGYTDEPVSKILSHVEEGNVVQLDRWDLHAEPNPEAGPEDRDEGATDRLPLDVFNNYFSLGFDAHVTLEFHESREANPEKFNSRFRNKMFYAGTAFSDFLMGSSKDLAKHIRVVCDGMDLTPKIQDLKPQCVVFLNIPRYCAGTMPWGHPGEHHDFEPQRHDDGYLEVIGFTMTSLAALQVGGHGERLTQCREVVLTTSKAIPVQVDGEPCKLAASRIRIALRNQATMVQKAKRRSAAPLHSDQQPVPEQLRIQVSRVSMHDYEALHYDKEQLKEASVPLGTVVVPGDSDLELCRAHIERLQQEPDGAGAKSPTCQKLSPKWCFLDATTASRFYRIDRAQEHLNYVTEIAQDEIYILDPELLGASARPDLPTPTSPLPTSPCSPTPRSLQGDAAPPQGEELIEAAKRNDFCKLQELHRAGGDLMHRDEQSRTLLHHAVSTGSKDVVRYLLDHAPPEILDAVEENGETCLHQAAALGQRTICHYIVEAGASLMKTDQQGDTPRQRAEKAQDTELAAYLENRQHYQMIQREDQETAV

Compound	IC50
COc1ccc(C(=O)c2sc(N(c3ccc(F)c(F)c3)C(C)C(N)=O)nc2N)cn1 (single isomer, unassigned) [Example 52.2, 2-(N-[4-amino-5-(6-methoxypyridine-3-carbonyl)thiazol-2-yl]-3,4-difluoro-anilino)propanamide]	11400 nM
Cc1ccc(CNC(=O)COc2ccc(C(=O)c3sc(N(c4ccc(F)cc4)C(C)C(N)=O)nc3N)cc2)cc1 (racemic) [Example 126, rac-2-(N-[4-amino-5-[4-[2-oxo-2-(p-tolylmethylamino)ethoxy]benzoyl]thiazol-2-yl]-4-fluoro-anilino)propanamide]	28.8 nM
CC(=O)Nc1ccc(C(=O)c2sc(N(c3ccc(F)cc3)C(C)C(N)=O)nc2N)cc1 (racemic) [Example 185, rac-2-(N-[5-(4-acetamidobenzoyl)-4-amino-thiazol-2-yl]-4-fluoro-anilino)propanamide]	301 nM
CC(C(N)=O)N(c1ccc(F)cc1)c1nc(N)c(C(=O)c2ccccc2F)s1 (racemic) [Example 8, rac-2-(N-[4-amino-5-(2-fluorobenzoyl)thiazol-2-yl]-4-fluoro-anilino)propanamide]	618 nM
CC(C(N)=O)N(c1ccc(F)cc1)c1nc(N)c(C(=O)c2ccc(OCC(=O)Nc3ccc(F)cc3)cc2)s1 (racemic) [Example 122, rac-2-(N-[4-amino-5-[4-[2-(4-fluoroanilino)-2-oxo-ethoxy]benzoyl]thiazol-2-yl]-4-fluoro-anilino)propanamide]	9.07 nM
CC(C(N)=O)N(c1ccc(F)cc1)c1nc(N)c(C(=O)c2ccc(OCC(=O)NCC(F)(F)F)cc2)s1 (racemic) [Example 99, rac-2-(N-[4-amino-5-[4-[2-oxo-2-(2,2,2-trifluoroethylamino)ethoxy]benzoyl]thiazol-2-yl]-4-fluoro-anilino)propanamide]	75.8 nM
CC(C(N)=O)N(c1cccnc1)c1nc(N)c(C(=O)c2ccccc2)s1 (racemic) [Example 79, rac-2-[(4-amino-5-benzoyl-thiazol-2-yl)-(3-pyridyl)amino]propanamide]	6790 nM
CC(C(N)=O)N(c1ccc(F)cc1)c1nc(N)c(C(=O)c2ccc(OCC(=O)Nc3ccc(C#N)cc3)cc2)s1 (racemic) [Example 92, rac-2-(N-[4-amino-5-[4-[2-(4-cyanoanilino)-2-oxo-ethoxy]benzoyl]thiazol-2-yl]-4-fluoro-anilino)propanamide]	16.7 nM
CC(C(N)=O)N(c1ccc(Cl)cc1)c1nc(N)c(C(=O)c2ccncc2)s1 (single isomer, unassigned) [Example 57.2, 2-(N-[4-amino-5-(pyridine-4-carbonyl)thiazol-2-yl]-4-chloro-anilino)propanamide]	14600 nM
CC(C(N)=O)N(c1ccc(OC(F)F)nc1)c1nc(N)c(C(=O)c2ccc(Cl)cc2)s1 (racemic) [Example 253, rac-2-[[4-amino-5-(4-chlorobenzoyl)thiazol-2-yl]-[6-(difluoromethoxy)-3-pyridyl]amino]propanamide]	59 nM
Cc1nc(N(c2ccc(F)cc2)C(C)C(N)=O)sc1C(=O)c1ccccc1 (racemic) [Example 156, rac-2-(N-(5-benzoyl-4-methyl-thiazol-2-yl)-4-fluoro-anilino)propanamide]	231 nM
CC(C(N)=O)N(c1ccc(Cl)cc1)c1nc(N)c(C(=O)c2ccc(F)cc2)s1 (single isomer, unassigned) [Example 37.1, 2-(N-[4-amino-5-(4-fluorobenzoyl)thiazol-2-yl]-4-chloro-anilino)propanamide]	2000 nM
CC(C)NC(=O)COc1ccc(C(=O)c2sc(N(c3ccc(F)cc3)C(C)C(N)=O)nc2N)cc1 (racemic) [Example 82, rac-2-(N-[4-amino-5-[4-[2-(isopropylamino)-2-oxo-ethoxy]benzoyl]thiazol-2-yl]-4-fluoro-anilino)propanamide]	89.6 nM
CC(C(N)=O)N(c1ccc(F)cc1)c1nc(N)c(C(=O)c2ccc(N3CCC(C)(C)CC3)nc2)s1 (racemic) [Example 279, rac-2-(N-[4-amino-5-[6-(4,4-dimethyl-1-piperidyl)pyridine-3-carbonyl]thiazol-2-yl]-4-fluoro-anilino)propanamide]	48 nM
Cc1ccc(N(c2nc(N)c(C(=O)c3ccccc3)s2)C(C)C(N)=O)cn1 (racemic) [Example 234, rac-2-[(4-amino-5-benzoyl-thiazol-2-yl)-(6-methyl-3-pyridyl)amino]propanamide]	1640 nM
CC(C(N)=O)N(c1ccc(F)c(F)c1)c1nc(N)c(C(=O)c2ccc(NC(=O)OCc3ccccc3)cc2)s1 (racemic) [Example 167, rac-benzyl N-[4-[4-amino-2-(N-(2-amino-1-methyl-2-oxo-ethyl)-3,4-difluoro-anilino)thiazole-5-carbonyl]phenyl]carbamate]	2 nM
CCC(C(N)=O)N(c1ccc(F)cc1)c1nc(N)c(C(=O)c2ccc(OC)cc2)s1 (racemic) [Example 70, rac-2-{[4-amino-5-(4-methoxybenzoyl)-1,3-thiazol-2-yl](4-fluorophenyl)amino}butanamide]	196 nM

Compound	IC50
COc1ccc(N(c2nc(N)c(C(=O)c3ccccc3)s2)C(C)C(N)=O)cc1 (racemic) [Example 66, rac-2-(N-(4-amino-5-benzoyl-thiazol-2-yl)-4-methoxy-anilino)propanamide]	363 nM
CCOC(=O)C(C)(C)Oc1ccc(C(=O)c2sc(N(c3ccc(F)cc3)C(C)C(N)=O)nc2N)cc1 (racemic) [Example 259, Rac-Ethyl 2-[4-[4-amino-2-(N-(2-amino-1-methyl-2-oxo-ethyl)-4-fluoro-anilino)thiazole-5-carbonyl]phenoxy]-2-methyl-propanoate]	19 nM
CC(C(N)=O)N(c1ccc(OC(F)(F)F)c(F)c1)c1nc(N)c(C(=O)c2ccc(Cl)cc2)s1 (racemic) [Example 218, rac-2-[N-[4-amino-5-(4-chlorobenzoyl)thiazol-2-yl]-3-fluoro-4-(trifluoromethoxy)anilino]propanamide]	64 nM
Cc1cccc(NC(=O)COc2ccc(C(=O)c3sc(N(c4ccc(F)cc4)C(C)C(N)=O)nc3N)cc2)c1 (racemic) [Example 87, rac-2-(N-[4-amino-5-[4-[2-(3-methylanilino)-2-oxo-ethoxy]benzoyl]thiazol-2-yl]-4-fluoro-anilino)propanamide]	8.53 nM
CC(C(N)=O)N(c1ccc(F)cc1)c1nc(N)c(C(=O)c2ccc(OCC(=O)N3CCCCCC3)cc2)s1 (racemic) [Example 123, rac-2-(N-[4-amino-5-[4-[2-(azepan-1-yl)-2-oxo-ethoxy]benzoyl]thiazol-2-yl]-4-fluoro-anilino)propanamide]	100 nM
CC(C(N)=O)N(c1ccc(OC(F)(F)F)c(Cl)c1)c1nc(N)c(C(=O)c2ccncc2)s1 (racemic) [Example 225, rac-2-[N-[4-amino-5-(pyridine-4-carbonyl)thiazol-2-yl]-3-chloro-4-(trifluoromethoxy)anilino]propanamide]	252 nM
CC(C(N)=O)N(c1nc(N)c(C(=O)c2ccccc2)s1)c1ccc(F)cc1Cl (racemic) [Example 11, rac-2-(N-(4-amino-5-benzoyl-thiazol-2-yl)-2-chloro-4-fluoro-anilino)propanamide]	406 nM
CC(C(N)=O)N(c1ccc(C#N)cc1)c1nc(N)c(C(=O)c2ccccc2)s1 (racemic) [Example 9, rac-2-(N-(4-amino-5-benzoyl-thiazol-2-yl)-4-cyano-anilino)propanamide]	536 nM
CC(C(N)=O)N(c1ccc(C(F)(F)F)cc1)c1nc(N)c(C(=O)c2ccc(OC(F)F)cc2)s1 (single isomer, unassigned) [Example 43.1, 2-[N-[4-amino-5-[4-(difluoromethoxy)benzoyl]thiazol-2-yl)-4-(trifluoromethyl)anilino]propanamide]	2730 nM
CC(C(N)=O)N(c1ccc(F)cc1)c1nc(N)c(C(=O)c2ccc(OC(F)F)nc2)s1 (racemic) [Example 162, rac-2-(N-[4-amino-5-[6-(difluoromethoxy)pyridine-3-carbonyl]thiazol-2-yl]-4-fluoro-anilino)propanamide]	22 nM
CC(C(N)=O)N(c1ccc(F)cc1)c1nc(N)c(C(=O)c2ccc(C#N)cc2F)s1 (racemic) [Example 22, rac-2-(N-[4-amino-5-(4-cyano-2-fluoro-benzoyl)thiazol-2-yl]-4-fluoro-anilino)propanamide]	130 nM
CC(C(N)=O)N(c1ccc(OC(F)(F)F)c(Cl)c1)c1nc(N)c(C(=O)c2ccc(OC(F)F)nc2)s1 (racemic) [Example 226, rac-2-[N-[4-amino-5-[6-(difluoromethoxy)pyridine-3-carbonyl]thiazol-2-yl]-3-chloro-4-(trifluoromethoxy)anilino]propanamide]	87 nM
CC(C(N)=O)N(c1ccc(OC(F)(F)F)cc1)c1nc(N)c(C(=O)c2ccc(F)cc2)s1 (single isomer, unassigned) [Example 27.2, 2-[N-(4-amino-5-(4-fluorobenzoyl)thiazol-2-yl]-4-(trifluoromethoxy)anilino]propanamide]	43.6 nM
CC(C(N)=O)N(c1ccc(F)cc1)c1nc(N)c(C(=O)c2ccc(I)cc2)s1 (racemic) [Example 171, rac-2-(N-[4-amino-5-(4-iodobenzoyl)thiazol-2-yl]4-fluoro-anilino)propanamide]	11 nM
CC(C(N)=O)N(c1ccc(Cl)c(F)c1)c1nc(N)c(C(=O)c2ccncc2)s1 (single isomer, unassigned) [Example 56.1, 2-(N-[4-amino-5-(pyridine-4-carbonyl)thiazol-2-yl]-4-chloro-3-fluoro-anilino)propanamide]	50.5 nM
CCNC(=O)COc1ccc(C(=O)c2sc(N(c3ccc(F)cc3)C(C)C(N)=O)nc2N)cc1 (racemic) [Example 104, rac-2-(N-[4-amino-5-[4-[2-(ethylamino)-2-oxo-ethoxy]benzoyl]thiazol-2-yl]-4-fluoro-anilino)propanamide]	234 nM

— patent publication US11964953B2, “Substituted aminothiazoles as DGKzeta inhibitors for immune activation” (Bayer Aktiengesellschaft, priority 2020, dated 2024)
